Assay [1] relates to greenhouse red spider mite (Tetranychus urticae). The experiment in a line: Tetranychus test (OP resistant), sprayed bean plants. The following applies: after 7 days; concentration of active compound 0.00016%; bean plants (Phaseolus vulgaris) sprayed, all development stages. Format: in vivo. On the procedure: Tetranychus Test (OP Resistant)
To produce a suitable preparation of active compound, 1 part by weight of active compound is mixed with the stated amount of solvent and the stated amount of emulsifier, and the concentrate is diluted with emulsifier-containing water to the desired concentration.
Bean plants (Phaseolus vulgaris) which are severely infested with all development stages of the greenhouse red spider mite (Tetranychus urticae) are sprayed with a preparation of active compound of the desired concentration.
After the specified periods of time, the destruction in % is determined. 100% means that all the spider mites have been killed; 0% means that none of the spider mites have been killed.

The test system of assay [2] is caterpillars of the diamond-back moth (Plutella maculipennis). The experiment in a line: Plutella test (cabbage leaf dip). The following applies: after 7 days; concentration of active compound 0.001%; cabbage leaves (Brassica olearacea) dipped. It is filed as in vivo. The method, then:
Plutella Test [table] To produce a suitable preparation of active compound, 1 part by weight of active compound is mixed with the stated amount of solvent and the stated amount of emulsifier, and the concentrate is diluted with water to the desired concentration. Cabbage leaves (Brassica olearacea) are treated by being dipped into the preparation of active compound of the desired concentration and are infested with caterpillars of the diamond-back moth (Plutella maculipennis) while the leaves are still moist. After the specified periods of time, the destruction in % is determined. 100% means that all the caterpillars have been killed; 0% means that none of the caterpillars have been killed.

Structures are written as SMILES.

On to `CC(C)C1(C)NC(=O)C(c2ccc(Cl)cc2Cl)=C1OC(=O)C(C)(C)C` (stereo not drawn) [(D)], for which the destruction rate result in assay [1] is given as “no destruction”.

On to `CCOC(=O)OC1=C(c2ccc(Cl)cc2Cl)C(=O)NC1(C)C(C)C` (stereo not drawn) [(E)], for which the destruction rate result in assay [1] is given as “no destruction”.

On to `CC(=O)OC1=C(c2c(C)cc(C)cc2C)C(=O)NC12CCCCC2` [(B)], for which, in assay [2], the destruction rate came out at 10%.

The record behind these values is US6939888B2, “1-H-3-arylpirrolidine-2,4-dione derivatives” (Bayer Aktiengesellschaft, priority 1994, dated 2005).
